Test results from publication PMC4474874, “Effect of JAK Inhibitors on Release of CXCL9, CXCL10 and CXCL11 from Human Airway Epithelial Cells” (PLoS ONE, 2015).
Where two headings read alike, the source gives them in different places.

What was measured:
BEAS-2B cells [1] = assay: Release of CXCL9, CXCL10 and CXCL11 from BEAS-2B cells (ELISA), inhibitors added concomitantly with stimulus; format: cell-based, human; settings: Homo sapiens, 20 h
Procedure: (§1) Cell-free supernatants were removed 20h post-stimulation and assayed for CXCL9, CXCL10 and CXCL11 using Duoset ELISA kits (R & D Systems Europe, Abingdon, UK) according to the manufacturer’s instructions. The detection limits of these assays are 62pg/ml, 31pg/ml, and 7.8 pg/ml respectively.
It was possible that concomitant addition of stimulus and JAK inhibitors may elicit a different inhibitory profile, therefore to address this, experiments were performed. […] Experiments were then performed to determine the effects of both JAK inhibitors in human primary airway epithelial cells in order to determine whether their ability to suppress CXCR3 chemokine release from BEAS-2B cells was reflective of their efficacy in primary cells.
Media was harvested and the concentrations of CXCL9 (panels a and d), CXCL10 (panels b and e) and CXCL11 (panels c and f) were measured by ELISA. Data are presented as mean±SEM, n = 7–8. (EPS) Click here for additional data file. […]
After this time, media was harvested and the concentrations of CXCR3 chemokines measured by ELISA. Data are presented as mean±SEM, n=4

[2] = test system: human primary airway epithelial cells; assay: IL-6 release from IFNγ + TNFα-stimulated human primary airway epithelial cells; format: cell-based
Procedure: In order to determine whether any of the inhibitory effects of the JAK inhibitors could be attributed to cell death, MTT assays were performed at the end of every experiment. […] In order to address this issue, the levels of IL-6 released from cells stimulated with IFNγ + TNFα were measured.

BEAS-2B cells [3] = assay: mRNA expression of CXCL9, CXCL10 and CXCL11 in BEAS-2B cells (Taqman RT-PCR); format: cell-based, human; settings: BEAS-2b, pretreated 1h, IFNγ or IFNγ with TNFα for 4h
Procedure: Total RNA was extracted from cells and reverse transcribed, as described previously. Gene expression was determined by Taqman real-time PCR on a 7500 Real Time PCR system (Applied Biosystems, Life Technologies Ltd, Paisley, UK) using PCR Master Mix Reagent and ‘assays on demand’ (Applied Biosystems). HPRT1 gene expression was used as the housekeeping gene and data presented as δδCT relative to baseline.
Gene expression of CXCL9 (panels a and b), CXCL10 (panels c and d) and CXCL11 (panels e and f) were quantified by Taqman RT-PCR. Data are presented as fold change form stimulus ± SEM; n = 3 where 1 indicates the level of mRNA induced by IFNγ or IFNγ + TNFα in the absence of inhibitors.

STAT-1 = STAT-1 DNA binding in BEAS-2B cells (TransAM); format: cell-based, human; settings: IFNγ and IFNγ + TNFα stimulation
Procedure: STAT phosphorylation, nuclear translocation and DNA binding was determined using TransAM assays (Actif Motif, Rixensart, Belgium). Cells were treated with JAK inhibitors for 30 min prior to stimulation for 1h. Nuclear extracts were prepared using the Actif Motif assay reagents. Briefly, the nuclear extracts (10 μg) were incubated in DNA coated plates for 1h. After washing, antibodies supplied with the TransAM kit that were specific for the active forms of STAT1, STAT3, STAT5A and STAT5B were added to the wells and incubated for a further hour. The plates were washed and a secondary HRP-labelled anti-goat Ig antibody was added and the plates incubated for an hour. After washing, the assay was developed using the TMB substrate provided and the reaction stopped using 2N sulphuric acid. The plates were read at 450nm with a reference filter of 610nm. Data were then normalised to non-stimulated cells and calculated as fold change from baseline.
After 1 h, nuclear extracts of the cells were prepared and TransAM assays for STAT-1 (panel a) and STAT-3 (panel b) were performed. Data are presented as fold change from baseline ± SEM; n = 4.

[4] = test system: human primary airway epithelial cells; assay: Release of CXCL9, CXCL10 and CXCL11 from human primary airway epithelial cells (ELISA); format: cell-based; settings: for IC50 / EC50: Homo sapiens, Epithelial cell, pre-treated 1h; for IC50: pooled primary cells
Procedure: BEAS-2B cells (catalogue number CRL-9609) were purchased directly from American Type Culture Collection (Rockville, MD). Keratinocyte serum-free medium (K-SFM), bovine pituitary extract (BPE), and recombinant human epidermal growth factor (EGF) were purchased from Invitrogen (Paisley, UK). BEAS-2B cells were cultured in K-SFM containing 50 μg/ml BPE and 5 ng/ml EGF at 37°C in a humidified atmosphere comprising 5% (v/v) CO2 in air. Cells were cultured as monolayers in growth factor-free media for 24 h prior to stimulation. Human primary airway epithelial cells were cultured as monolayers from bronchial brushings from both male and female subjects (Table 1) and cultured in LHC-9 media (Invitrogen, Paisley, UK) in collagen (1% w/v) coated flasks. Samples were obtained from non-smokers, smokers and patients with COPD. […] The subjects were matched for age and smokers and COPD patients for smoking history (Table 1). All subjects gave informed written consent and the study was approved by the NRES London-Chelsea Research Ethics committee, study number 09/H0801/85.
as §1
Data are presented as mean ± SEM of ‘n’ independent determinations. Concentration-response curves were analysed by least-squares, non-linear iterative regression with the ‘Graphpad Prism’ curve fitting program (GraphPad software, San Diego, USA) and IC50 values were subsequently interpolated from curves of best-fit. Statistical differences were determined using the Kruskal–Wallis test followed by Dunn's multiple comparison test or a Wilcoxon signed rank test as appropriate. Values of P<0.05 were considered significant.
Media was harvested and the concentrations of CXCL9 (panels a and d), CXCL10 (panels b and e) and CXCL11 (panels c and f) were measured by ELISA. Data are presented as mean ± SEM, n = 10–13.

With `CCc1cc(O)ccc1-c1ccc2c(-c3nc4ccccc4[nH]3)n[nH]c2c1` [PF1367550, 4-(3-(1H-benzo[d]imidazol-2-yl)-1H-indazol-6-yl)-3-ethylphenol] the IC50 (BEAS-2B cells [1]; inhibitor concomitant with IFNγ (10 ng/ml) 20h, read-out: IC50, release of CXCL9) was 10.3 ± 2.1 nM, the IC50 (BEAS-2B cells [1]; inhibitor concomitant with IFNγ (10 ng/ml) 20h, read-out: IC50, release of CXCL10) was 16.6 ± 2.7 nM and the IC50 (BEAS-2B cells [1]; inhibitor concomitant with IFNγ (10 ng/ml) 20h, read-out: IC50, release of CXCL11) was 16 ± 4.1 nM. It also gave an IC50 (BEAS-2B cells [1]; inhibitor concomitant with IFNγ+TNFα (10 ng/ml) 20h, read-out: IC50, release of CXCL9) of 31.6 ± 13.4 nM, an IC50 (BEAS-2B cells [1]; inhibitor concomitant with IFNγ+TNFα (10 ng/ml) 20h, read-out: IC50, release of CXCL10) of 146 ± 32.6 nM and an IC50 (BEAS-2B cells [1]; inhibitor concomitant with IFNγ+TNFα (10 ng/ml) 20h, read-out: IC50, release of CXCL11) of 32 ± 8.7 nM. The “IC50 for IL-6 release, fold greater than for inhibition of CXCR3 chemokine release” value [2] was ~ 50 fold, the IC50 ([2]; Homo sapiens, Epithelial cell, IFNγ + TNFα, n = 7) was 800 ± 200 nM and the “effect on expression of CXCL9, CXCL10 and CXCL11 (mRNA)” value (BEAS-2B cells [3]) was “completely inhibited”. For the same molecule, the “effect on STAT-1 DNA binding” value (STAT-1) was “suppressed”, the IC50 ([4]; IFNγ (10ng/ml) 20h, read-out: IC50, release of CXCL9) was 8.4 ± 1.3 nM and the IC50 ([4]; IFNγ (10ng/ml) 20h, read-out: IC50, release of CXCL10) was 10.4 ± 1.7 nM. The IC50 ([4]; IFNγ (10ng/ml) 20h, read-out: IC50, release of CXCL11) was 7 ± 0.9 nM, the IC50 ([4]; IFNγ+TNFα (10ng/ml) 20h, read-out: IC50, release of CXCL9) was 17.6 ± 3 nM and the IC50 ([4]; IFNγ+TNFα (10ng/ml) 20h, read-out: IC50, release of CXCL10) was 24.3 ± 2.4 nM. It also gave an IC50 ([4]; IFNγ+TNFα (10ng/ml) 20h, read-out: IC50, release of CXCL11) of 14.5 ± 2.4 nM, an EC50 ([4]; primary cells from COPD patients, IFNγ (10 ng/ml) 20h, read-out: EC50, release of CXCL9) of 7.4 ± 1.3 nM and an EC50 ([4]; primary cells from COPD patients, IFNγ (10 ng/ml) 20h, read-out: EC50, release of CXCL10) of 7.1 ± 1.3 nM. The EC50 ([4]; primary cells from COPD patients, IFNγ (10 ng/ml) 20h, read-out: EC50, release of CXCL11) was 6.3 ± 1.4 nM, the EC50 ([4]; primary cells from COPD patients, IFNγ +TNFα (10 ng/ml) 20h, read-out: EC50, release of CXCL9) was 20.8 ± 4.8 nM and the EC50 ([4]; primary cells from COPD patients, IFNγ +TNFα (10 ng/ml) 20h, read-out: EC50, release of CXCL10) was 29.1 ± 3.5 nM. The EC50 ([4]; primary cells from COPD patients, IFNγ +TNFα (10 ng/ml) 20h, read-out: EC50, release of CXCL11) was 16.7 ± 4.1 nM, the EC50 ([4]; primary cells from non-smokers, IFNγ (10 ng/ml) 20h, read-out: EC50, release of CXCL9) was 9.73 ± 3.5 nM and the EC50 ([4]; primary cells from non-smokers, IFNγ (10 ng/ml) 20h, read-out: EC50, release of CXCL10) was 12.8 ± 5.6 nM. For the same molecule, the EC50 ([4]; primary cells from non-smokers, IFNγ (10 ng/ml) 20h, read-out: EC50, release of CXCL11) was 8.5 ± 0.7 nM, the EC50 ([4]; primary cells from non-smokers, IFNγ +TNFα (10 ng/ml) 20h, read-out: EC50, release of CXCL9) was 14.1 ± 7.1 nM and the EC50 ([4]; primary cells from non-smokers, IFNγ +TNFα (10 ng/ml) 20h, read-out: EC50, release of CXCL10) was 20.3 ± 5.1 nM. The EC50 ([4]; primary cells from non-smokers, IFNγ +TNFα (10 ng/ml) 20h, read-out: EC50, release of CXCL11) was 13.7 ± 6.7 nM, the EC50 ([4]; primary cells from smokers, IFNγ (10 ng/ml) 20h, read-out: EC50, release of CXCL9) was 9 ± 3 nM and the EC50 ([4]; primary cells from smokers, IFNγ (10 ng/ml) 20h, read-out: EC50, release of CXCL10) was 12.3 ± 0.36 nM. The EC50 ([4]; primary cells from smokers, IFNγ (10 ng/ml) 20h, read-out: EC50, release of CXCL11) was 6.8 ± 1.9 nM, the EC50 ([4]; primary cells from smokers, IFNγ +TNFα (10 ng/ml) 20h, read-out: EC50, release of CXCL9) was 15.3 ± 4.8 nM and the EC50 ([4]; primary cells from smokers, IFNγ +TNFα (10 ng/ml) 20h, read-out: EC50, release of CXCL10) was 20.2 ± 3.6 nM. The EC50 ([4]; primary cells from smokers, IFNγ +TNFα (10 ng/ml) 20h, read-out: EC50, release of CXCL11) was 11.8 ± 2.9 nM and the “fold more potent than PF956980, CXCR3 chemokine release” value ([4]; pooled human primary airway epithelial cells) was ~ 80 fold.
